Tests used:
Type in all cases: physicochemical
[1] = Comparative in vitro dissolution test, 50 rpm paddle speed; conditions: for Average % Olanzapine Release (n = 3): USP Apparatus 2, 50 rpm, 0.05% CTAB pH 6.8 USP buffer, 37° C., 1000 mL
Experimental: In-vitro dissolution testing was performed to compare the olanzapine release rates for olanzapine pamoate monohydrate and the olanzapine pamoate dihydrate.

[2] = In vitro dissolution test at higher paddle speed (100 rpm); conditions: 100 rpm paddle speed, 0.05% CTAB pH 6.8 USP buffer, 37° C.
Experimental: Another dissolution experiment was performed in order to ensure that the media conditions used to generate the profiles in Table 4 were not solubility limiting. This experiment was performed using the same samples and media conditions but at a higher paddle speed to provide the data listed in Table 5.

[3] = Solubility in aqueous solution (comparative statement)

SMILES	Average % Olanzapine Release (n = 3) ([1]; 0.25 hr)	Average % Olanzapine Release (n = 3) ([1]; 0.5 hr)	Average % Olanzapine Release (n = 3) ([1]; 0.75 hr)	Average % Olanzapine Release (n = 3) ([1]; 1 hr)	Average % Olanzapine Release (n = 3) ([1]; 2 hrs)	Average % Olanzapine Release (n = 3) ([1]; 4 hrs)	Average % Olanzapine Release (n = 3) ([1]; 6 hrs)	Average % Olanzapine Release (n = 3) ([1]; 24 hrs)	% Olanzapine Release (n = 1) ([2]; 24 hrs)	% Olanzapine Release (n = 1) ([2]; 36 hrs)	Solubility in aqueous solution compared with olanzapine pamoate monohydrate [3]	Release rate of olanzapine compared with olanzapine pamoate monohydrate ([1]; aqueous conditions of Table 3, 50 rpm)
Cc1cc2c(s1)Nc1ccccc1N=C2N1CCN(C)CC1.O=C(O)c1cc2ccccc2c(Cc2c(O)c(C(=O)O)cc3ccccc23)c1O [Olanzapine Pamoate Monohydrate, 2-methyl-4-(4-methyl-1-piperazinyl)-10H-thieno[2,3-b][1,5]benzodiazepine pamoate, reference compound]	27%	39%	46%	52%	62%	73%	77%	83%	99%	99%		
Cc1cc2c(s1)Nc1ccccc1N=C2N1CCN(C)CC1.O.O.O=C(O)c1cc2ccccc2c(Cc2c(O)c(C(=O)O)cc3ccccc23)c1O [Olanzapine Pamoate Dihydrate, 2-methyl-4-(4-methyl-1-piperazinyl)-10H-thieno[2,3-b][1,5]benzodiazepine pamoate dihydrate]	19%	26%	30%	33%	40%	45%	47%	59%	95%	97%	substantially less soluble in aqueous solution than olanzapine pamoate monohydrate	substantially lower release rate of olanzapine than the olanzapine pamoate monohydrate

Reference: patent US7932249B2, “Olanzapine pamoate dihydrate” (Eli Lilly and Company, priority 2005, dated 2011)
